From ChEMBL document CHEMBL4402575

Target: Transthyretin (Homo sapiens) (UniProt P02766)
Test: Stabilization of wild type human transthyretin expressed in Escherichia coli BL21(DE3) Star assessed as fibril formation at 50 uM pre-incubated with transthyretin before amyloid beta (1 to 42) addition by ThT fluorescence assay

Structure (SMILES) | Activity [%]
O=C(O)c1ccc2nc(-c3cc(Cl)cc(Cl)c3)oc2c1 | 24
O=C(O)c1cc(-c2ccc(F)cc2F)ccc1O | 26
